Source: patent US12082582B2, “Synergistic preservative compositions, process for preparing the same and method of use thereof” (ISP INVESTMENTS LLC, priority 2018, dated 2024)

Legend:
Type in all cases: cell-based
[1] = tested on: B. cepacia; test: Synergy study of PC and (CHA + IPMP), MIC by broth dilution; settings: compound acting alone
Method: (§1) The synergistic activity of PC and (CHA+IPMP) compounds were performed against selected microbial strains.
(§2) Tryptic Soy Broth (TSB) media was used for bacterial evaluations and Yeast Malt Broth (YMB) for fungal evaluations. The IPMP solution is prepared by combining 0.25% IPMP with 20% DMSO and water (q.s. 100%). The CHA solution was prepared by combining 0.5% CHA with 20% DMSO and water (q.s. 100%). The compounds are then added to the media (50 μL) and serially diluted. The same amount of PC was added to all wells (e.g. 50 μL of 6.25% solution). 100 μl of a suspension of the testing bacteria or fungi are added to a final concentration of approximately 10^6 CFU/ml in double concentrated media. The inoculated media is then incubated at 32° C. for 2-5 days for bacteria or at 28° C. for 3-7 days for fungi.
(§3) The lowest concentration of each compound or mixture of compounds to inhibit visible growth is taken as the minimum inhibitory concentration (MIC). The MIC is taken as end points of activity. End points for the mixture of compound A (CHA) and compound B (IPMP) with and without PC are then compared with the end points for the pure active ingredient alone.
(§4) Synergism was determined by a commonly used and accepted method described by Kull A. C; Eisman, P. C.; Sylwestrowicz, H. D. and Mayer, R. L. 1961. Applied Microbiology, 9:538-541 using the ratio determine by: Qa/QA+Qb/QB=Synergy Wherein: • QA is the concentration of compound A in PPM, acting alone, which produced an end point. • Qa is the concentration of compound A in PPM, in the mixture, which produced an end point. • QB is the concentration of compound B in PPM, acting alone, which produced an end point. • Qb is the concentration of compound B in PPM, in the mixture, which produced an end point When the sum of Qa/QA+Qb/QB is greater than one, antagonism is indicated. When the sum is equal to one, additive is indicated.
(§5) The results comprise following parameters: 1. Test organism (bacteria or fungi), 2. The end-point activity in % measured by MIC for the compound A alone (QA), for compound A in the mixture (Qa), for compound B alone (QB), for compound B in the mixture (Qb), 3. The ratio of CHA and IPMP (compound A and B) in that particular combination, 4. The sum of Qa+Qb (total ppm that inhibited growth) and 5. and the synergy index (SI) based on the formula SI=Qa/QA+Qb/QB

[2] = tested on: E. coli; test: as above; settings: compound acting alone
Method: as §1, §2, §3, §4, §5

[3] = tested on: C. albicans; test: as above; settings: compound acting alone
Method: as §1, §2, §3, §4, §5

[4] = tested on: A. niger; test: as above; settings: compound acting alone
Method: as §1, §2, §3, §4, §5

[5] = Antimicrobial and antifungal characteristics (MIC) of propylene carbonate alone
Excerpt: In one embodiment of the application, the synergistic composition of propylene carbonate with one or more organic compounds or preservative compounds can provide broad spectrum antimicrobial properties. […] The presence of propylene carbonate in the composition can maximize the partitioning of the mixture of organic/preservative compounds into the water phase when added to an end-user composition comprising a mixture of oil and a water phase. Further, the propylene carbonate-based compositions or blends acts as a delivery agent for other preservative/organic actives that have low polarity with high dielectric constant making it a suitable blend to dissolve hydrophobic non-polar actives. The high dielectric constant of the composition enables it to partition the active ingredients towards the oil/water interface which is critical for maximum efficacy and reduces use levels of preservatives or boosters.

## CCCCCCCC(=O)NO [CHA, caprylhydroxamic acid]
[1]; Burkholderia cepacia, read-out: MIC, CHA alone (QA)
  MIC: 312 µg/mL
[2]; Escherichia coli, read-out: MIC, CHA alone (QA)
  MIC: 625 µg/mL
[3]; Candida albicans, read-out: MIC, CHA alone (QA)
  MIC: 312 µg/mL
[4]; Aspergillus niger, read-out: MIC, CHA alone (QA)
  MIC: 312 µg/mL

## Cc1cc(O)ccc1C(C)C [IPMP, isopropyl methylphenol]
[1]
  MIC, IPMP alone (QB): 312.5 ppm
[2]
  MIC, IPMP alone (QB): 625 ppm
[3]
  MIC, IPMP alone (QB): 312.5 ppm
[4]
  MIC, IPMP alone (QB): 156.3 ppm

## CC1COC(=O)O1 (stereo not drawn) [Propylene carbonate]
[5]
  Antimicrobial and antifungal characteristics (MIC): no significant antimicrobial and antifungal characteristics
